Measurements published in PubChem BioAssay AID1699 (The Scripps Research Institute Molecular Screening Center, 2009).
Activity calls are given as the source filed them.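 How the source made its calls: active means IC50 on parental Ba/F3 cells at or below 10 µM; inactive means IC50 above 10 µM.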

The molecules below were run on parental Ba/F3 viability, CellTiter-Glo ATP luminescence (assay: cytotoxicity in parental murine Ba/F3 cells – cell-based, luminescence, counter-screen for JAK2V617F inhibitor project, dose response (AID 1699)).

Compound | IC50
Cc1[nH]c2ccccc2c(=O)c1C(=O)/C=C/c1ccccc1 | 3.12 µM
Cc1cc(SCC(=O)N/N=C/c2ccc(O)c(O)c2)c(C)cc1Br | 10.7 µM (inactive)
O=C(OCn1ncc(Cl)c(Cl)c1=O)c1ccccc1Cl | 1.2 µM
Nc1nc(CCl)nc(N(c2ccccc2)c2ccccc2)n1 | 1.26 µM
c1ccc2c(c1)CSc1sccc1C2=C1CCNCC1 | 10.5 µM (inactive)
COc1cccc(/C=N/NC(=O)c2[nH]c(C)c(C(=O)N/N=C/c3cccc(OC)c3O)c2C)c1O | 6.66 µM
Nc1nc(N)c2nc(-c3ccccc3)c(N)nc2n1 | 4.61 µM
O=C(C=C=Nc1ccccc1)C(=O)N=C=Cc1ccccc1 | 10.7 µM (inactive)
Oc1ccc(Cl)cc1N=Cc1sc2ccccc2c1Cl | 5.94 µM
Cc1cccc(CS(=O)(=O)c2nnc([C@H](Cc3ccccc3)NC(=O)OC(C)(C)C)o2)c1 | 3.64 µM
Cc1[nH]c(=O)c(C(=O)/C=C/c2ccccc2F)c2c1CCCC2 | 5.19 µM
O=C1C=C(Nc2ccc(O)cc2)C(=O)c2ccccc21 | 7.53 µM
Cc1cccc(N(Cc2ccccc2)C(=O)CCl)c1 | 1.63 µM
Nc1nc(CCl)nc(Nc2ccc3ccccc3c2)n1 | 1.08 µM
[O-][N+]1=c2ccc(Nc3ccccc3)cc2=NC12CCCCC2 | 5.2 µM
COc1ccc(Nc2ccc3c(c2)=NC2(CCCCC2)[N+]=3[O-])cc1 | 1.71 µM
COc1ccc([N+](=O)[O-])c(S(=O)(=O)c2ccc(Cl)cc2)n1 | 3.26 µM
CC1CCN(CCCNC(=O)c2cc3c(Cl)nc4ccccc4c3s2)CC1 | 4.39 µM
CCCc1nc2ccccc2c(=O)n1/N=C/c1ccc(O)c(O)c1 | 3.62 µM
Clc1ccc(-n2nnnc2Sc2ncnc3sccc23)cc1 | 2.91 µM
COc1ccccc1N(C(=O)CCl)c1cn(C(C)=O)c2ccccc12 | 4.61 µM
C/C(=C\c1ccc(N(C)C)cc1)[N+](=O)[O-] | 3.5 µM

Compound | IC50
CCCCCCN(C(=O)CCl)c1ccccc1 | 2.11 µM
CC1CCCN(CCCNC(=O)c2cc3c(Cl)nc4ccccc4c3s2)C1 (configuration not stated) | 3.5 µM
O=S(=O)(c1cnc(Cl)c(Br)c1)N1CCc2ccccc21 | 5.31 µM
O=C(NC1C=CS(=O)(=O)C1)c1sc2ccccc2c1Cl (configuration not stated) | 13.8 µM (inactive)
Cc1c(Cc2ccccc2)c(=O)oc2c(O)c(O)ccc12 | 8.62 µM
O=C(CCl)N(C/C=C/c1ccccc1)c1ccc2c(c1)OCCO2 | 2.51 µM
CS(=O)(=O)c1nc(-c2ccco2)cc(C(F)(F)F)n1 | 2.28 µM
COc1cccc(N(C(=O)CCl)C(C(=O)NCCc2ccccc2)c2cccs2)c1 (configuration not stated) | 1.34 µM
COc1ccc(-c2cnc3c(c2)CCC3(C#N)C#N)cc1 | 2.07 µM
O=c1cnn([C@@H]2O[C@H](CO)[C@@H](O)[C@H]2O)c(=O)[nH]1 | 6.8 µM
O=C(CCl)N=c1sccn1Cc1ccc(Cl)cc1Cl | 0.653 µM
O=C1C=CC(=O)N1CCNc1ncc(C(F)(F)F)cc1Cl | 1.76 µM
CCC(C)[C@@H](NC(=O)OC(C)(C)C)c1nnc(S(=O)(=O)Cc2cccc(C)c2)o1 (some centres not stated) | 4.67 µM
O=C(/C(=N/N=C/c1ccc(O)c(O)c1)c1ccccc1)c1ccccc1 | 1.67 µM
CNC(=O)c1nnsc1S(=O)c1ccc(Cl)cc1 (configuration not stated) | 2.26 µM
Oc1ccc(/C=N/N2CCN(C3c4ccccc4-c4ccccc43)CC2)cc1O | 5.68 µM
Cc1ccc(Cn2ccsc2=NC(=O)CCl)cc1 | 7.76 µM
COc1ccc(C2=Nn3c(nnc3C3CCCCC3)SC2)cc1OC | 7.52 µM
COc1ccc(Nc2nc(N)nc(CCl)n2)cc1 | 2.66 µM
Cc1cccc(Nc2nc(N)nc(CCl)n2)c1C | 2.07 µM
Cc1ccccc1CS(=O)(=O)c1nnc([C@H](Cc2ccccc2)NC(=O)OC(C)(C)C)o1 | 5.33 µM
CCCn1c(CN(C)Cc2ccccc2)nc2c1c(=O)n(C)c(=O)n2C | 8.17 µM

Compound | IC50
COc1ccc(OC)c(NS(=O)(=O)c2ccc(SC)cc2)c1 | 12.4 µM (inactive)
c1ccc(CCNc2nc(-c3ccccn3)nc3ccccc23)cc1 | 3.02 µM
COC(=O)/C=C/c1ccc(OC(=O)OC)c(OC(=O)OC)c1 | 10.7 µM (inactive)
O=S(=O)(c1cnc(Cl)c(Cl)c1)N1CCc2ccccc21 | 15.8 µM (inactive)
O=C(CCl)NCc1cc(-c2ccc(Cl)cc2)no1 | 8.35 µM
C#CCSc1nsc(SCC#C)c1C#N | 2.83 µM
CN(c1ccccc1)S(=O)(=O)c1cccc(C(=O)NCCc2ccc(O)c(O)c2)c1 | > 40 µM (inactive)
c1ccc2c(CN3CCCCCC3)c[nH]c2c1 | 10.7 µM (inactive)
CC(C)(C)c1cc(NC(=O)CCl)n(-c2ccccc2)n1 | 3.76 µM
Cc1ccccc1CS(=O)(=O)c1nnc([C@H](CC(C)C)NC(=O)OC(C)(C)C)o1 | 1.68 µM
COC(=O)COc1cccc2c(=O)n(CC(=O)NCc3ccc(F)cc3)ccc12 | 3.34 µM
O=C(/C=C/c1ccc(O)c(O)c1)c1ccc(S(=O)(=O)N2CCCCCC2)cc1 | 7.51 µM
O=C(O)c1[nH]c(=O)[nH]c(=O)c1F | 6.87 µM
O=C(CCl)N=c1sccn1Cc1cccc2ccccc12 | 1.04 µM
O=C1C=CCC(/C=C/c2ccccc2)O1 (configuration not stated) | 8.52 µM
O=C(Oc1cccc2c(O)cccc12)c1ccccc1 | 6.51 µM
COc1cc(/C=C2\COC/C(=C\c3ccc(O)c(OC)c3)C2=O)ccc1O | 3.62 µM
CCN1C/C(=C/c2ccc(OC)c(O)c2)C(=O)/C(=C/c2ccc(OC)c(O)c2)C1 | 1.5 µM
COc1ccccc1-c1nnc(Sc2nc([N+](=O)[O-])nn2C)o1 | 4.65 µM
Oc1ccccc1OCCOc1ccccc1OCCOc1ccccc1O | 7.12 µM
CC(C)C1C(C#N)=C(N)Oc2n[nH]c(-c3ccc4ccccc4c3)c21 (configuration not stated) | 3.56 µM
CC(C)(C)OC(=O)N[C@@H](Cc1ccccc1)c1nnc(S(=O)(=O)Cc2cccc(F)c2)o1 | 3.74 µM

Compound | IC50
O=C(Nc1cccc(NC(=O)c2cccs2)c1)c1ccc([N+](=O)[O-])o1 | 3.7 µM
CC(C)(C)/C(O)=C/c1nc2cc(Cl)ccc2oc1=O | 9.55 µM
CCN(CC)S(=O)(=O)c1cccc(-n2c(O)c(C=Nc3ccccc3C(=O)O)c3ccccc3c2=O)c1 | > 40 µM (inactive)
O=c1oc2ccc(Cl)cc2nc1/C=C(\O)c1ccco1 | 8.35 µM
O=C1/C(=C/c2ccc(O)c(O)c2)SC(=S)N1Nc1ccccc1 | 11 µM (inactive)
Cc1cccc(NC(=O)c2ccc([N+](=O)[O-])o2)c1 | 6.88 µM
Cc1nc([N+](=O)[O-])c(Br)n1Cc1ccc(Cl)c(Cl)c1 | 8.44 µM
CCCCn1c(=N)n(CC(=O)c2ccc(Br)s2)c2ccccc21 | 4.37 µM
Cc1cc2[nH]c3c(c[n+](C)c4ccccc34)c2cc1C | 3.85 µM
O=C(CSc1nnnn1-c1ccc(F)cc1)c1ccc(O)c(O)c1 | 11.1 µM (inactive)
O=S(=O)(c1cccs1)N1CCN(c2ccc(O)cc2)CC1 | 5.66 µM
COc1ccc(-n2nnnc2SCC(=O)c2ccc(O)c(O)c2)cc1 | 3.34 µM
O=C(CCl)N=c1sccn1Cc1ccccc1Cl | 1.11 µM
COC1(OC)C(/C=C/c2ccc(Cl)cc2)C(C#N)(C#N)C1(OC)OC (configuration not stated) | 7.83 µM
CCCC(=O)N(C1CC(C)C(C#N)(C#N)C1(C#N)C#N)N(C)C (configuration not stated) | 4.77 µM
Cc1nc([N+](=O)[O-])c(Br)n1CC(=O)c1ccc2ccccc2c1 | 3.68 µM
Cc1nn2c(NCc3ccccn3)c3c(nc2c1-c1ccccc1)CCC3 | 4.28 µM
Cc1nn(Cc2ccc(Cl)cc2Cl)c(C)c1NC(=O)CCl | 11.4 µM (inactive)
CCOc1ccc(Nc2nc(N)nc(CCl)n2)cc1 | 1.92 µM
Cc1ccc(C)c(Sc2ccc(NC(=O)CCl)cc2)c1 | 7.25 µM
Cc1oc2c(O)c(O)ccc2c(=O)c1-c1cnn(-c2ccccc2)c1 | 2.97 µM
CCCOc1ccc(C(=O)C(CN2CCOCC2)c2ccccc2)cc1 (configuration not stated) | 2.46 µM

Compound | IC50
COc1cccc(F)c1C(C[N+](=O)[O-])c1c(N)n(C)c(=O)n(C)c1=O (configuration not stated) | 4.22 µM
COc1ccc2nc(C)cc(Sc3nc4ccccc4s3)c2c1 | 6.96 µM
Cc1cccc(OCC(=O)Nc2cc(C)ccc2O)c1 | > 40 µM (inactive)
COc1cc2c(cc1OC)-c1cc(N3CCCc4ccccc43)nc(=O)n1CC2 | 35.6 µM (inactive)
COc1ccccc1C(C[N+](=O)[O-])c1c(N)n(C)c(=O)n(C)c1=O (configuration not stated) | 6.49 µM
N#C/C(=C\c1ccc(O)c(O)c1)C(=O)NCCCc1ccccc1 | 6.01 µM
Cc1ccc2nc(C)cc(Nc3ccc([N+](=O)[O-])cc3)c2c1 | 3.31 µM
CC1CCCC(NC(=O)NC(=O)CCl)C1C (configuration not stated) | 10.6 µM (inactive)
O=C(OCn1ncc(Cl)c(Cl)c1=O)c1ccc(F)cc1 | 1.14 µM
O=C(Nc1cccc2c1[nH]c1ccccc12)C(F)(F)F | 13.7 µM (inactive)
O=C(CCl)NC(=O)NC12CC3CC(CC(C3)C1)C2 | 4.37 µM
CN(C)C(=S)SSC(=S)N(C)C | 0.223 µM
COc1ccc(-c2cc(-c3cc(C)ccc3O)[nH]n2)cc1 | 8.76 µM
Cc1ccc(NC(=O)C(=Cc2ccc(C(=O)O)cc2)C(=O)Nc2ccc(C)cc2C)c(C)c1 | 5.46 µM
CCCn1c(CC)nc([N+](=O)[O-])c1S(=O)(=O)c1ccccc1 | 5.9 µM
Cc1nc2c(=O)n(C)c(=O)n(C)c2nc1Cl | 4.55 µM
Cc1ccc(Nc2nc(N)nc(CCl)n2)cc1 | 1.42 µM
COc1ccc(N2CCc3c(C)nc4c(OC)cc(OC)cc4c32)c(OC)c1 | 8.32 µM
CCOc1ccc(C(=O)C(CN2CCOCC2)c2ccccc2)cc1 (configuration not stated) | 2.4 µM
